Patent publication US11834678B2, “Hematopoietic stem cells with improved properties” (Yeda Research and Development Co. Ltd., priority 2017, dated 2023)

Columns and labels:
HSPCs = assay: HSPC levels in bone marrow after 6 days of NAC injections (FACS); type: in vivo; details: CD74−/− mice; NAC 50 mg/kg i.p. for 6 days; compared to WT levels
Protocol: FIGS. 8A-L illustrate that CD74 regulates stem cell retention. (FIGS. 8A-C) FACS staining of HSPCs from WT and CD74^−/− mice for Ki-67. Results are represented as: (FIG. 8A) Percentage of Ki-67^+ from CD34^−LSK and percentage of Ki-67^+ from CD34^+ LSK, (FIG. 8B) percentage of CD34−LSK Ki-67− and CD34−LSK Ki-67+ from total BM cells and (FIG. 8C) percentage of CD34^+ LSK Ki-67^− and CD34^+ LSK Ki-67^+ from total BM cells, n=15. (FIGS. 8D-E) Mice were fed with 0.8 mg/ml BrdU in the drinking water for 3 days and BrdU incorporation was analyzed by FACS. Results are represented as: (FIG. 8D) % BrdU^+ in LSK; (FIG. 8E) percentage of LSK BrdU^− and percentage of LSK BrdU^+ from total BM cells, n=12-14. (FIG. 8F-G) FACS staining of HSPCs from WT and CD74^−/− mice for ROS. Results are represented as number of ROS high in million cells, n=9. (FIGS. 8H-I) percentage of HSPCs after 6 days of NAC injections mg/ml, n=5. (FIG. 8J) FACS staining of HSPCs from WT and CD74^−/− mice for Annexin V, n=10-12, and after 24 hours in hypoxia (FIG. 8K), n=4-5. (FIG. 8L) Ratio of Annexin V+CD74^−/− to WT of HSPCs in hypoxia and normoxic conditions. Bars show SEM. Unpaired t-test two tailed *<0.05 **<0.01.
Electron transfer along the mitochondrial respiration chain induces the formation of ROS (Kobayashi and Suda, 2012). […]

HSPC = details: after a single injection; cited from earlier work

Molecule | levels of HSPCs (HSPCs) | time to mobilization of HSPC (HSPC)
CC(=O)N[C@@H](CS)C(=O)O [NAC, N-acetyl-L-cystein] | partially reduced | –
Zymosan | – | ≤ 1 h
